Patent US8192962B2, “Processes for detecting toxic substances” (Daikin Industries, Ltd., priority 2001, dated 2012)

Test system: Stress protein genes
Experiment: DNA chip mRNA expression in yeast, stress protein genes (Table 6)
Format: cell-based, Saccharomyces cerevisiae S288C
Outline: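 Expression change after 2 h toxicant exposure (growth-inhibiting, sub-lethal) of log-phase S. cerevisiae S288C at 25° C. Oligo-dT-purified mRNA was labeled with Cy3-dUTP or Cy5-dUTP and hybridized >12 h at 65° C. to a genome-wide chip; ratio of scanned fluorescence to control.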

CN(C)C(=S)SSC(=S)N(C)C [(10), Tetramethylthiuram disulfide]
The level of expressed mRNA in the presence of chemical substance/The level of expressed mRNA in the absence of chemical substance (yeast gene YAL005C): 1.8 | The level of expressed mRNA in the presence of chemical substance/The level of expressed mRNA in the absence of chemical substance (yeast gene YAL015C): 2.7 | The level of expressed mRNA in the presence of chemical substance/The level of expressed mRNA in the absence of chemical substance (yeast gene YBL075C): 6.7 | The level of expressed mRNA in the presence of chemical substance/The level of expressed mRNA in the absence of chemical substance (yeast gene YBL093C): 1.1 | The level of expressed mRNA in the presence of chemical substance/The level of expressed mRNA in the absence of chemical substance (yeast gene YBR044C): 1.2 | The level of expressed mRNA in the presence of chemical substance/The level of expressed mRNA in the absence of chemical substance (yeast gene YBR054W): 1.2 | The level of expressed mRNA in the presence of chemical substance/The level of expressed mRNA in the absence of chemical substance (yeast gene YBR067C): 1.0 | The level of expressed mRNA in the presence of chemical substance/The level of expressed mRNA in the absence of chemical substance (yeast gene YBR072W): 43.4 | The level of expressed mRNA in the presence of chemical substance/The level of expressed mRNA in the absence of chemical substance (yeast gene YBR169C): 4.3 | The level of expressed mRNA in the presence of chemical substance/The level of expressed mRNA in the absence of chemical substance (yeast gene YCL035C): 2.3 | The level of expressed mRNA in the presence of chemical substance/The level of expressed mRNA in the absence of chemical substance (yeast gene YCR021C): 1.0 | The level of expressed mRNA in the presence of chemical substance/The level of expressed mRNA in the absence of chemical substance (yeast gene YCR060W): 1.1 | The level of expressed mRNA in the presence of chemical substance/The level of expressed mRNA in the absence of chemical substance (yeast gene YCR083W): 1.8 | The level of expressed mRNA in the presence of chemical substance/The level of expressed mRNA in the absence of chemical substance (yeast gene YDL022W): 1.8 | The level of expressed mRNA in the presence of chemical substance/The level of expressed mRNA in the absence of chemical substance (yeast gene YDL025C): 4.5 | The level of expressed mRNA in the presence of chemical substance/The level of expressed mRNA in the absence of chemical substance (yeast gene YDR033W): 1.0 | The level of expressed mRNA in the presence of chemical substance/The level of expressed mRNA in the absence of chemical substance (yeast gene YDR077W): 0.7 | The level of expressed mRNA in the presence of chemical substance/The level of expressed mRNA in the absence of chemical substance (yeast gene YDR098C): 1.5 | The level of expressed mRNA in the presence of chemical substance/The level of expressed mRNA in the absence of chemical substance (yeast gene YDR155C): 1.3 | The level of expressed mRNA in the presence of chemical substance/The level of expressed mRNA in the absence of chemical substance (yeast gene YDR258C): 13.3 | The level of expressed mRNA in the presence of chemical substance/The level of expressed mRNA in the absence of chemical substance (yeast gene YDR293C): 1.2 | The level of expressed mRNA in the presence of chemical substance/The level of expressed mRNA in the absence of chemical substance (yeast gene YDR436W): 1.1 | The level of expressed mRNA in the presence of chemical substance/The level of expressed mRNA in the absence of chemical substance (yeast gene YDR513W): 3.1 | The level of expressed mRNA in the presence of chemical substance/The level of expressed mRNA in the absence of chemical substance (yeast gene YDR519W): 1.2 | The level of expressed mRNA in the presence of chemical substance/The level of expressed mRNA in the absence of chemical substance (yeast gene YEL030W): 2.5 | The level of expressed mRNA in the presence of chemical substance/The level of expressed mRNA in the absence of chemical substance (yeast gene YEL039C): 1.2 | The level of expressed mRNA in the presence of chemical substance/The level of expressed mRNA in the absence of chemical substance (yeast gene YER042W): 2.1 | The level of expressed mRNA in the presence of chemical substance/The level of expressed mRNA in the absence of chemical substance (yeast gene YER057C): 1.4 | The level of expressed mRNA in the presence of chemical substance/The level of expressed mRNA in the absence of chemical substance (yeast gene YER103W): 9.0 | The level of expressed mRNA in the presence of chemical substance/The level of expressed mRNA in the absence of chemical substance (yeast gene YER125W): 1.2 | The level of expressed mRNA in the presence of chemical substance/The level of expressed mRNA in the absence of chemical substance (yeast gene YFL014W): 5.8 | The level of expressed mRNA in the presence of chemical substance/The level of expressed mRNA in the absence of chemical substance (yeast gene YFL016C): 2.9 | The level of expressed mRNA in the presence of chemical substance/The level of expressed mRNA in the absence of chemical substance (yeast gene YFL020C): 1.4 | The level of expressed mRNA in the presence of chemical substance/The level of expressed mRNA in the absence of chemical substance (yeast gene YFR052W): 3.0 | The level of expressed mRNA in the presence of chemical substance/The level of expressed mRNA in the absence of chemical substance (yeast gene YGL073W): 2.4 | The level of expressed mRNA in the presence of chemical substance/The level of expressed mRNA in the absence of chemical substance (yeast gene YGL115W): 1.2 | The level of expressed mRNA in the presence of chemical substance/The level of expressed mRNA in the absence of chemical substance (yeast gene YGL181W): 2.3 | The level of expressed mRNA in the presence of chemical substance/The level of expressed mRNA in the absence of chemical substance (yeast gene YGR088W): 3.2 | The level of expressed mRNA in the presence of chemical substance/The level of expressed mRNA in the absence of chemical substance (yeast gene YHL028W): 0.4 | The level of expressed mRNA in the presence of chemical substance/The level of expressed mRNA in the absence of chemical substance (yeast gene YHL046C): 2.1 | The level of expressed mRNA in the presence of chemical substance/The level of expressed mRNA in the absence of chemical substance (yeast gene YHR030C): 2.5 | The level of expressed mRNA in the presence of chemical substance/The level of expressed mRNA in the absence of chemical substance (yeast gene YHR057C): 1.2 | The level of expressed mRNA in the presence of chemical substance/The level of expressed mRNA in the absence of chemical substance (yeast gene YHR104W): 2.3 | The level of expressed mRNA in the presence of chemical substance/The level of expressed mRNA in the absence of chemical substance (yeast gene YIL011W): 0.5 | The level of expressed mRNA in the presence of chemical substance/The level of expressed mRNA in the absence of chemical substance (yeast gene YIL033C): 1.3 | The level of expressed mRNA in the presence of chemical substance/The level of expressed mRNA in the absence of chemical substance (yeast gene YIR037W): 3.8 | The level of expressed mRNA in the presence of chemical substance/The level of expressed mRNA in the absence of chemical substance (yeast gene YIR038C): 4.5 | The level of expressed mRNA in the presence of chemical substance/The level of expressed mRNA in the absence of chemical substance (yeast gene YJL128C): 1.7 | The level of expressed mRNA in the presence of chemical substance/The level of expressed mRNA in the absence of chemical substance (yeast gene YJL158C): 0.5 | The level of expressed mRNA in the presence of chemical substance/The level of expressed mRNA in the absence of chemical substance (yeast gene YJL159W): 1.2 | The level of expressed mRNA in the presence of chemical substance/The level of expressed mRNA in the absence of chemical substance (yeast gene YJL165C): 1.0 | The level of expressed mRNA in the presence of chemical substance/The level of expressed mRNA in the absence of chemical substance (yeast gene YJR045C): 3.0 | The level of expressed mRNA in the presence of chemical substance/The level of expressed mRNA in the absence of chemical substance (yeast gene YJR090C): 1.2 | The level of expressed mRNA in the presence of chemical substance/The level of expressed mRNA in the absence of chemical substance (yeast gene YKL161C): 1.7 | The level of expressed mRNA in the presence of chemical substance/The level of expressed mRNA in the absence of chemical substance (yeast gene YKL163W): 1.6 | The level of expressed mRNA in the presence of chemical substance/The level of expressed mRNA in the absence of chemical substance (yeast gene YKL164C): 0.7 | The level of expressed mRNA in the presence of chemical substance/The level of expressed mRNA in the absence of chemical substance (yeast gene YKL210W): 2.9 | The level of expressed mRNA in the presence of chemical substance/The level of expressed mRNA in the absence of chemical substance (yeast gene YKR053C): 1.8 | The level of expressed mRNA in the presence of chemical substance/The level of expressed mRNA in the absence of chemical substance (yeast gene YLL024C): 2.4 | The level of expressed mRNA in the presence of chemical substance/The level of expressed mRNA in the absence of chemical substance (yeast gene YLL026W): 6.6 | The level of expressed mRNA in the presence of chemical substance/The level of expressed mRNA in the absence of chemical substance (yeast gene YLL039C): 1.5 | The level of expressed mRNA in the presence of chemical substance/The level of expressed mRNA in the absence of chemical substance (yeast gene YLL060C): 23.2 | The level of expressed mRNA in the presence of chemical substance/The level of expressed mRNA in the absence of chemical substance (yeast gene YLR006C): 1.1 | The level of expressed mRNA in the presence of chemical substance/The level of expressed mRNA in the absence of chemical substance (yeast gene YLR109W): 2.7 | The level of expressed mRNA in the presence of chemical substance/The level of expressed mRNA in the absence of chemical substance (yeast gene YLR259C): 2.6 | The level of expressed mRNA in the presence of chemical substance/The level of expressed mRNA in the absence of chemical substance (yeast gene YML007W): 2.5 | The level of expressed mRNA in the presence of chemical substance/The level of expressed mRNA in the absence of chemical substance (yeast gene YML070W): 3.9 | The level of expressed mRNA in the presence of chemical substance/The level of expressed mRNA in the absence of chemical substance (yeast gene YMR021C): 1.3 | The level of expressed mRNA in the presence of chemical substance/The level of expressed mRNA in the absence of chemical substance (yeast gene YMR173W): 8.2 | The level of expressed mRNA in the presence of chemical substance/The level of expressed mRNA in the absence of chemical substance (yeast gene YMR186W): 1.3 | The level of expressed mRNA in the presence of chemical substance/The level of expressed mRNA in the absence of chemical substance (yeast gene YNL064C): 1.8 | The level of expressed mRNA in the presence of chemical substance/The level of expressed mRNA in the absence of chemical substance (yeast gene YNL160W): 2.7 | The level of expressed mRNA in the presence of chemical substance/The level of expressed mRNA in the absence of chemical substance (yeast gene YNL241C): 7.4 | The level of expressed mRNA in the presence of chemical substance/The level of expressed mRNA in the absence of chemical substance (yeast gene YNR076W): 2.5 | The level of expressed mRNA in the presence of chemical substance/The level of expressed mRNA in the absence of chemical substance (yeast gene YOL064C): 2.7 | The level of expressed mRNA in the presence of chemical substance/The level of expressed mRNA in the absence of chemical substance (yeast gene YOL161C): 2.0 | The level of expressed mRNA in the presence of chemical substance/The level of expressed mRNA in the absence of chemical substance (yeast gene YOR008C): 1.0 | The level of expressed mRNA in the presence of chemical substance/The level of expressed mRNA in the absence of chemical substance (yeast gene YOR009W): 0.5 | The level of expressed mRNA in the presence of chemical substance/The level of expressed mRNA in the absence of chemical substance (yeast gene YOR010C): 0.7 | The level of expressed mRNA in the presence of chemical substance/The level of expressed mRNA in the absence of chemical substance (yeast gene YOR027W): 4.0 | The level of expressed mRNA in the presence of chemical substance/The level of expressed mRNA in the absence of chemical substance (yeast gene YOR208W): 2.0 | The level of expressed mRNA in the presence of chemical substance/The level of expressed mRNA in the absence of chemical substance (yeast gene YPL059W): 1.3 | The level of expressed mRNA in the presence of chemical substance/The level of expressed mRNA in the absence of chemical substance (yeast gene YPL106C): 1.8 | The level of expressed mRNA in the presence of chemical substance/The level of expressed mRNA in the absence of chemical substance (yeast gene YPL140C): 0.9 | The level of expressed mRNA in the presence of chemical substance/The level of expressed mRNA in the absence of chemical substance (yeast gene YPL194W): 3.1 | The level of expressed mRNA in the presence of chemical substance/The level of expressed mRNA in the absence of chemical substance (yeast gene YPL223C): 16.5 | The level of expressed mRNA in the presence of chemical substance/The level of expressed mRNA in the absence of chemical substance (yeast gene YPL240C): 2.6 | The level of expressed mRNA in the presence of chemical substance/The level of expressed mRNA in the absence of chemical substance (yeast gene YPR005C): 2.0 | The level of expressed mRNA in the presence of chemical substance/The level of expressed mRNA in the absence of chemical substance (yeast gene YPR026W): 3.1
